From patent publication US9789181B2, “PAN-DR binding polypeptides and uses thereof” (Epimmune Inc., priority 2009, dated 2017)
Where no end group is shown, it is not given here.

Tests used:
[1] = molecular target: purified HLA DRB1 *0101 (Homo sapiens, UniProt P01903+P01911, A100R/D57E/F55L/F60I/F76Y/I96L/L162R/M171V/P40L/Q125E/R42F/V115G/Y59C); assay: IC50nM to purified HLA | DRB1 *0101
Method: (§1) Table printed on a drawing sheet, FIG. 1
(§2) Head of the field: IC50nM to purified HLA | DRB1 *0101
(§3) First copying reader's note: The comma is the decimal sign and the point a thousands separator (e.g. 21.831); some values are printed bold or italic and some SEQ ID NOs underlined, with no legend on the sheet.
(§4) Where the first naming reader finds the target: head: IC50nM to purified HLA | DRB1 *0101

[2] = molecular target: purified HLA DRB1 *0301 (Homo sapiens, UniProt P01903+P01911, A100K/A102G/A103R/A169T/F55Y/I96L/K41T/L162R/M171V/P40S/Q125H/Q178H/Q39Y/R42S/S66N/T106N/T262R/W38E/Y61H); assay: IC50nM to purified HLA | DRB1 *0301
Chain of purified HLA DRB1 *0301 (P01903 26-254 limits assumed, other chains not shown): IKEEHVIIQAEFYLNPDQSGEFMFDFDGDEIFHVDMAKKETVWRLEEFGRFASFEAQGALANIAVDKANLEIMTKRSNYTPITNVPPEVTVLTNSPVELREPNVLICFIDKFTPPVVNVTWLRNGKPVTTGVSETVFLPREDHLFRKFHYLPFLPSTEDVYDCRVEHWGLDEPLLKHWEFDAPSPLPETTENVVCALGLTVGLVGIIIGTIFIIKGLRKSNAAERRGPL
Method: as §1
(§5) Head of the field: IC50nM to purified HLA | DRB1 *0301
as §3
(§6) Where the first naming reader finds the target: head: IC50nM to purified HLA | DRB1 *0301

[3] = molecular target: purified HLA DRB1 *0401 (Homo sapiens, UniProt P01903+P01911, A100K/A169T/F76Y/I96L/K127E/L162R/M171V/N62H/P40V/Q125Y/R42H/S133A/S149N/S66Y/V115G/V209L/W38E); assay: IC50nM to purified HLA | DRB1 *0401
Method: as §1
(§7) Head of the field: IC50nM to purified HLA | DRB1 *0401
as §3
(§8) Where the first naming reader finds the target: head: IC50nM to purified HLA | DRB1 *0401

[4] = molecular target: purified HLA DRB1 *0404 (Homo sapiens, UniProt P01903+P01911, A100R/A169T/F76Y/I96L/K127E/L162R/M171V/N62H/P40V/Q125Y/R42H/S133A/S149N/S66Y/V209L/W38E); assay: IC50nM to purified HLA | DRB1 *0404
Method: as §1
(§9) Head of the field: IC50nM to purified HLA | DRB1 *0404
as §3
(§10) Where the first naming reader finds the target: head: IC50nM to purified HLA | DRB1 *0404

[5] = molecular target: purified HLA DRB1 *0701 (Homo sapiens, UniProt P01903+P01911, A100R/A102G/A103Q/D57E/D86V/E43K/F76Y/K127E/L162R/M171V/P40G/Q125H/Q99D/R33Q/R42Y/R54Q/S133A/S66F/T210M/V115G/Y107V/Y59L/Y89S); assay: IC50nM to purified HLA | DRB1 *0701
Method: as §1
Head of the field: IC50nM to purified HLA | DRB1 *0701
as §3
Where the first naming reader finds the target: head: IC50nM to purified HLA | DRB1 *0701

[6] = molecular target: purified HLA DRB1 *0802 (Homo sapiens, UniProt P01903+P01911, A100R/A103L/A169T/F76Y/H45Y/I96F/K41T/L162R/M171V/P40S/Q125H/Q178H/Q39Y/Q99D/R218S/R42G/S66Y/V115G/W38E); assay: IC50nM to purified HLA | DRB1 *0802
Method: as §1
(§11) Head of the field: IC50nM to purified HLA | DRB1 *0802
as §3
(§12) Where the first naming reader finds the target: head: IC50nM to purified HLA | DRB1 *0802

[7] = molecular target: purified HLA DRB1 *1501 (Homo sapiens, UniProt P01903+P01911); assay: IC50nM to purified HLA | DRB1 *1501
Method: as §1
(§13) Head of the field: IC50nM to purified HLA | DRB1 *1501
as §3
(§14) Where the first naming reader finds the target: head: IC50nM to purified HLA | DRB1 *1501

[8] = molecular target: purified HLA DRB4 *0101 (Homo sapiens, UniProt P01903+P13762, G164S); assay: IC50nM to purified HLA | DRB4 *0101
Chain of purified HLA DRB4 *0101 (P01903 26-254 limits assumed): as the sequence (P01903 26-254 limits assumed, other chains not shown) above
Chain of purified HLA DRB4 *0101 (P13762 whole entry G164S): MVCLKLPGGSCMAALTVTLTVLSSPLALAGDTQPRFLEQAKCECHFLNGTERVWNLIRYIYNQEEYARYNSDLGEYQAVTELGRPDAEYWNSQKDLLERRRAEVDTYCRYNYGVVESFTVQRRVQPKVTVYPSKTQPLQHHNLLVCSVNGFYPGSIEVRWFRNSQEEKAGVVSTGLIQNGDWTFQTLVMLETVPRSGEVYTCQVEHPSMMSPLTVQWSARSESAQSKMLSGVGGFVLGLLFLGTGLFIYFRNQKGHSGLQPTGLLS
Method: as §1
(§15) Head of the field: IC50nM to purified HLA | DRB4 *0101
as §3
(§16) Where the first naming reader finds the target: head: IC50nM to purified HLA | DRB4 *0101

[9] = molecular target: purified HLA DRB1 *1302 (Homo sapiens, UniProt P01903+P01911, A100E/A169T/K41T/L162R/M171V/P40S/Q125H/Q178H/Q39Y/Q99D/R42S/S66N/T262R/V115G/W38E/Y61H); assay: IC50nM to purified HLA | DRB1 *1302
Chain of purified HLA DRB1 *1302 (P01903 26-254 limits assumed, other chains not shown): as the sequence (P01903 26-254 limits assumed, other chains not shown) above
Method: as §1
Head of the field: IC50nM to purified HLA | DRB1 *1302
as §3
Where the first naming reader finds the target: head: IC50nM to purified HLA | DRB1 *1302

[10] = molecular target: HLA DRB1 *0101 (Homo sapiens, UniProt P01903+P01911, A100R/D57E/F55L/F60I/F76Y/I96L/L162R/M171V/P40L/Q125E/R42F/V115G/Y59C); assay: IC50nM to purified HLA | DRB1 *0101
Method: (§17) Table printed on a drawing sheet, FIG. 1 (contd.)
as §2
(§18) First copying reader's note: Continued from the preceding sheet of FIG. 1; decimal commas are used, the analog names give the substituted residues and positions in PADRE, and some values are printed in italics or bold and some SEQ ID NOs bold and underlined without a legend on this sheet.
as §4

[11] = molecular target: HLA DRB1 *0301 (Homo sapiens, UniProt P01903+P01911, A100K/A102G/A103R/A169T/F55Y/I96L/K41T/L162R/M171V/P40S/Q125H/Q178H/Q39Y/R42S/S66N/T106N/T262R/W38E/Y61H); assay: IC50nM to purified HLA | DRB1 *0301
Chain of HLA DRB1 *0301 (P01903 26-254 limits assumed, other chains not shown): as above
Method: as §17, §5, §18, §6

[12] = molecular target: HLA DRB1 *0401 (Homo sapiens, UniProt P01903+P01911, A100K/A169T/F76Y/I96L/K127E/L162R/M171V/N62H/P40V/Q125Y/R42H/S133A/S149N/S66Y/V115G/V209L/W38E); assay: IC50nM to purified HLA | DRB1 *0401
Method: as §17, §7, §18, §8

[13] = molecular target: HLA DRB1 *0404 (Homo sapiens, UniProt P01903+P01911, A100R/A169T/F76Y/I96L/K127E/L162R/M171V/N62H/P40V/Q125Y/R42H/S133A/S149N/S66Y/V209L/W38E); assay: IC50nM to purified HLA | DRB1 *0404
Method: as §17, §9, §18, §10

[14] = molecular target: HLA DRB1 *0802 (Homo sapiens, UniProt P01903+P01911, A100R/A103L/A169T/F76Y/H45Y/I96F/K41T/L162R/M171V/P40S/Q125H/Q178H/Q39Y/Q99D/R218S/R42G/S66Y/V115G/W38E); assay: IC50nM to purified HLA | DRB1 *0802
Method: as §17, §11, §18, §12

[15] = molecular target: HLA DRB1 *0901 (Homo sapiens, UniProt P01903+P01911, A100R/A103E/D57H/D86V/F55Y/F60I/F76Y/I96F/K127E/L162R/M171V/P40D/Q125H/Q99R/R33Q/R42F/S133A/S66N/T210M/V115G/W38K/Y107V/Y59G/Y89S); assay: IC50nM to purified HLA | DRB1 *0901
Method: as §17
Head of the field: IC50nM to purified HLA | DRB1 *0901
as §18
Where the first naming reader finds the target: head: IC50nM to purified HLA | DRB1 *0901

[16] = molecular target: HLA DRB1 *1101 (Homo sapiens, UniProt P01903+P01911, A100R/A169T/A87E/I96F/K41T/L162R/M171V/P40S/Q125H/Q178H/Q39Y/Q99D/R42S/S66Y/T262R/V115G/W38E); assay: IC50nM to purified HLA | DRB1 *1101
Chain of HLA DRB1 *1101 (P01903 26-254 limits assumed, other chains not shown): as above
Method: as §17
Head of the field: IC50nM to purified HLA | DRB1 *1101
as §18
Where the first naming reader finds the target: head: IC50nM to purified HLA | DRB1 *1101

[17] = molecular target: HLA DRB1 *1501 (Homo sapiens, UniProt P01903+P01911); assay: IC50nM to purified HLA | DRB1 *1501
Method: as §17, §13, §18, §14

[18] = molecular target: HLA DRB4 *0101 (Homo sapiens, UniProt P01903+P13762, G164S); assay: IC50nM to purified HLA | DRB4 *0101
Chain of HLA DRB4 *0101 (P01903 26-254 limits assumed): as the sequence (P01903 26-254 limits assumed, other chains not shown) above
Chain of HLA DRB4 *0101 (P13762 whole entry G164S): as the sequence (P13762 whole entry G164S) above
Method: as §17, §15, §18, §16

[19] = molecular target: purified HLA DRB1 *0405 (Homo sapiens, UniProt P01903+P01911, A100R/A169T/D86S/F76Y/I96L/K127E/L162R/M171V/N62H/P40V/Q125Y/R42H/S133A/S149N/S66Y/V115G/V209L/W38E); assay: IC50nM to purified HLA | DRB1 *0405
Method: as §1
(§19) Head of the field: IC50nM to purified HLA | DRB1 *0405
as §3
(§20) Where the first naming reader finds the target: head: IC50nM to purified HLA | DRB1 *0405

[20] = molecular target: purified HLA DRB5 *0101 (Homo sapiens, UniProt P01903+Q30154); assay: IC50nM to purified HLA | DRB5 *0101
Method: as §1
Head of the field: IC50nM to purified HLA | DRB5 *0101
as §3
Where the first naming reader finds the target: head: IC50nM to purified HLA | DRB5 *0101

[21] = molecular target: HLA DRB1 *0405 (Homo sapiens, UniProt P01903+P01911, A100R/A169T/D86S/F76Y/I96L/K127E/L162R/M171V/N62H/P40V/Q125Y/R42H/S133A/S149N/S66Y/V115G/V209L/W38E); assay: IC50nM to purified HLA | DRB1 *0405
Method: as §17, §19, §18, §20

Sequence | IC50 [1] | IC50 [2] | IC50 [3] | IC50 [4] | IC50 [5] | IC50 [6] | IC50 [7] | IC50 [8] | IC50 [9] | IC50 [10] | IC50 [11] | IC50 [14] | IC50 [16] | IC50 [17] | IC50 [18] | further results
AAAFFVAAWTLHAAA [SEQ ID NO: 12] | 0.0036 µM | 0.129 µM | 0.0022 µM | 0.0029 µM | 0.06 µM | 0.0078 µM | 0.025 µM | 0.44 µM | – | – | – | – | – | – | – | –
AAAYFVAANTLHAAA [SEQ ID NO: 24] | 0.0045 µM | 0.13 µM | 0.0033 µM | 0.0052 µM | 0.049 µM | – | 0.053 µM | 0.703 µM | 0.054 µM | – | – | – | – | – | – | –
AAAHFVAAWTLHAAA [SEQ ID NO: 26] | 0.0042 µM | – | – | – | 0.053 µM | 0.0093 µM | – | 0.267 µM | 1.19 µM | – | – | – | – | – | – | –
AAAFFVAAYTLHAAA [SEQ ID NO: 13] | 0.0044 µM | 0.151 µM | 0.0017 µM | 0.0023 µM | 0.054 µM | 0.0074 µM | 0.0048 µM | 0.805 µM | – | – | – | – | – | – | – | IC50 [19]: 0.019 µM; IC50 [20]: 0.011 µM

Continued, in another order:

IC50 [1] | IC50 [2] | IC50 [3] | IC50 [4] | IC50 [5] | IC50 [6] | IC50 [7] | IC50 [8] | IC50 [9] | IC50 [10] | IC50 [11] | IC50 [14] | IC50 [16] | IC50 [17] | IC50 [18] | Sequence | further results
– | – | – | – | – | – | – | – | – | 0.004 µM | 0.228 µM | 0.011 µM | 0.0081 µM | 0.013 µM | 0.1 µM | AAAHFVAAFTLHAAA [SEQ ID NO: 28] | IC50 [12]: 0.0022 µM; IC50 [13]: 0.0031 µM; IC50 [15]: 0.024 µM
– | – | – | – | – | – | – | – | – | 0.0045 µM | 0.147 µM | 0.013 µM | 0.011 µM | 0.01 µM | 0.253 µM | AAANFVAAWTLHAAA [SEQ ID NO: 51] | IC50 [21]: 0.0076 µM
